Measurements: PMC12320299 (Chemical Science, 2025)
Where two headings read alike, the source gives them in different places.

Columns and labels:
SW480 cancer cells = assay: Proteome profiling of compound-treated SW480 cancer cells (24 h, approx. IC50, CYT and NE fractions); format: cell-based, human; conditions: for N° significantly regulated proteins, Total: CYT and NE; for N° proteins down-regulated, CYT / N° proteins upregulated, CYT: cytoplasmic fraction
Procedure: To gain insight into potential modes of action and derive structure–activity relationships on a molecular level, proteomic profiling experiments were carried out based on label-free quantification (LFQ) by nano-liquid chromatography tandem mass spectrometry (nLC-MS/MS). […] Six replicates were used per condition. The perturbations were evaluated at subcellular resolution by fractionating cells into cytoplasmic (CYT) and nuclear (NE) protein fractions. Those have been separately proteolytically digested and analysed (Fig. 3A). The perturbations with the 3-Et-NQ and 3-Morph-NQ complexes were performed against their respective solvent-treated controls (CON), yielding a total of 72 samples. […] Statistical significance of individual protein regulations was calculated by multiple testing-corrected P-values based on 5% false discovery rate (FDR = 0.05 and S0 = 0.1).
The position of each group represents the summed fold-changes of the individual proteins in the group according to the subcellular space, i.e., CYT and NE fractions, while the size represents the number of proteins in each group. […]
Proteome profiling of compound-treated SW480 cancer cells […]
cells per well and left to adhere in complete cell culture medium. After 24 h, the medium was exchanged with fresh complete medium (DMSO mock control) or fresh medium containing […]
solution in DMSO, respectively) and incubated for another 24 h. Each condition was carried out in hexuplicates. The cells were processed according to a nucleocytoplasmic fractionation protocol as previously described.3 All steps were performed on ice. The medium was removed, and the cells were washed twice with 1×PBS (phosphate buffered saline, 3 mL). Then, PBS was thoroughly removed. Isotonic lysis buffer (10 mM HEPES, 10 mM NaCl, 3.5 mM MgCl2, 1 mM EGTA, 0.25 M Sucrose, 0.5% Triton X-100) containing protease inhibitors (1% PMSF, Sigma, and 1% protease and phosphatase inhibitor cocktail, Roche) was added to the flasks, the cells were scraped off and transferred into labelled 15 mL Falcon tubes. The cellular membrane was ruptured using shear stress by pressing the cell suspension through a syringe 9–12 times. Membrane rupture with intact nuclei was monitored under a microscope. After centrifugation (960 g, 5 min), the supernatant containing the cytoplasmic (CYT) proteins was transferred into new tubes containing ice-cold ethanol (1 : 5, HPLC grade) and precipitated […]
overnight at –20 °C. The pellet containing the nuclei was incubated with a hypertonic solution (10 mM Tris-HCl, 1 mM EDTA and 0.5 M NaCl) and subsequently diluted 1:10 with NP-40 buffer (10 mm Tris-HCl, 1 mm EDTA and 0.5% Triton X-100) containing protease inhibitors (1% PMSF, Sigma, and 1% protease and phosphatase inhibitor cocktail, Roche). After centrifugation (960 g, 5 min), the soluble nuclear (NE) proteins were also transferred into new tubes containing ice-cold ethanol (1 : 5, HPLC grade) and precipitated overnight at –20 °C.
The precipitated proteins were finally pelleted by centrifugation (5000 g, 30 min, 4 °C), the solution was decanted and the pellet dried under vacuum.

SW480 = tested on: SW480; design: method as in earlier work; conditions: 96 h incubation; ref 48 (ESI Ref. 1); cited from earlier work
CH1/PA-1 = tested on: CH1/PA-1; design: method as in Ref. 1 (ESI); conditions: 96 h incubation; ref Ref. 1 (ESI); cited from earlier work
[1] = nuclear fraction, FDR = 0.05, S0 = 0.1

Structure (SMILES): CCC1=C2[O][Ru][O]C2(n2cccn2)c2ccccc2C1=O.Cc1ccc(C(C)C)cc1 (stereo not drawn) [Compound 1a, [(3-ethyl-4-oxo-(pyrazolyl)-dihydronaphthalene)(cymene)ruthenium(II)]]
- N° proteins down-regulated, NE (SW480 cancer cells): 211
- N° proteins upregulated, NE (SW480 cancer cells): 178
- N° significantly regulated proteins, Total (SW480 cancer cells): 810
- TP53 regulation in cytoplasmic fraction (SW480 cancer cells; CYT fraction): strongest down-regulated protein
- N° proteins down-regulated, CYT (SW480 cancer cells; FDR = 0.05, S0 = 0.1): 298
- N° proteins upregulated, CYT (SW480 cancer cells; FDR = 0.05, S0 = 0.1): 123
- IC50 (SW480): 46 ± 7 nM
- IC50 (CH1/PA-1): 62 ± 5 µM

Structure (SMILES): CCC1=C2[O][Os][O]C2(n2cccn2)c2ccccc2C1=O.Cc1ccc(C(C)C)cc1 (stereo not drawn) [Compound 2a]
- N° significantly regulated proteins, Total (SW480 cancer cells): 968
- GO BP Cellular response to heat, summed fold-changes (SW480 cancer cells; CYT fraction): 12.51
- GO BP Cellular response to oxidative stress, summed fold-changes (SW480 cancer cells; CYT fraction): 2.82
- GO BP DNA duplex unwinding, summed fold-changes (SW480 cancer cells; CYT fraction): -6.24
- GO BP DNA replication, summed fold-changes (SW480 cancer cells; CYT fraction): -1.08
- GO BP Double-strand break repair, summed fold-changes (SW480 cancer cells; CYT fraction): -1.23
- GO BP Macroautophagy, summed fold-changes (SW480 cancer cells; CYT fraction): 10.51
- GO BP Negative regulation of apoptotic process, summed fold-changes (SW480 cancer cells; CYT fraction): 3.78
- GO BP Negative regulation of translation, summed fold-changes (SW480 cancer cells; CYT fraction): -16.92
- GO BP Proteasome-mediated ubiquitin-dependent protein catabolic process, summed fold-changes (SW480 cancer cells; CYT fraction): 2.56
- GO BP Protein K48-linked ubiquitination, summed fold-changes (SW480 cancer cells; CYT fraction): -5.49
- GO BP Protein folding, summed fold-changes (SW480 cancer cells; CYT fraction): 12.25
- GO BP Protein transport, summed fold-changes (SW480 cancer cells; CYT fraction): -1.68
- GO BP Regulation of mRNA stability, summed fold-changes (SW480 cancer cells; CYT fraction): -7.54
- GO BP Response to oxidative stress, summed fold-changes (SW480 cancer cells; CYT fraction): 3.27
- GO BP Ribosomal small subunit biogenesis, summed fold-changes (SW480 cancer cells; CYT fraction): -13.81
- GO BP Stress granule assembly, summed fold-changes (SW480 cancer cells; CYT fraction): -9.95
- GO BP Translation, summed fold-changes (SW480 cancer cells; CYT fraction): -61.19
- GO BP mRNA processing, summed fold-changes (SW480 cancer cells; CYT fraction): -0.15
- GO BP rRNA processing, summed fold-changes (SW480 cancer cells; CYT fraction): -20.40
- GO CC Azurophil granule lumen, summed fold-changes (SW480 cancer cells; CYT fraction): 3.77
- GO CC Cell surface, summed fold-changes (SW480 cancer cells; CYT fraction): 0.48
- GO CC Centrosome, summed fold-changes (SW480 cancer cells; CYT fraction): -15.78
- GO CC Chromosome, telomeric region, summed fold-changes (SW480 cancer cells; CYT fraction): -11.84
- GO CC Cytoplasmic stress granule, summed fold-changes (SW480 cancer cells; CYT fraction): -16.41
- GO CC Cytosol, summed fold-changes (SW480 cancer cells; CYT fraction): -84.80
- GO CC Endoplasmic reticulum, summed fold-changes (SW480 cancer cells; CYT fraction): -28.57
- GO CC Extracellular exosome, summed fold-changes (SW480 cancer cells; CYT fraction): -26.34
- GO CC Ficolin-1-rich granule lumen, summed fold-changes (SW480 cancer cells; CYT fraction): 8.74
- GO CC Focal adhesion, summed fold-changes (SW480 cancer cells; CYT fraction): -17.07
- GO CC Intracellular membrane-bounded organelle, summed fold-changes (SW480 cancer cells; CYT fraction): -3.80
- GO CC Membrane, summed fold-changes (SW480 cancer cells; CYT fraction): -160.70
- GO CC Mitochondrion, summed fold-changes (SW480 cancer cells; CYT fraction): -60.30
- GO CC Nucleoplasm, summed fold-changes (SW480 cancer cells; CYT fraction): -4.45
- GO CC Nucleus, summed fold-changes (SW480 cancer cells; CYT fraction): -0.98
- GO CC Perinuclear region of cytoplasm, summed fold-changes (SW480 cancer cells; CYT fraction): -5.25
- GO CC Proteasome complex, summed fold-changes (SW480 cancer cells; CYT fraction): 3.84
- GO CC Protein-containing complex, summed fold-changes (SW480 cancer cells; CYT fraction): -12.02
- GO CC Ribonucleoprotein complex, summed fold-changes (SW480 cancer cells; CYT fraction): -24.78
- GO CC Spliceosomal complex, summed fold-changes (SW480 cancer cells; CYT fraction): -1.04
- KEGG pathway Apoptosis, summed fold-changes (SW480 cancer cells; CYT fraction): 5.03
- KEGG pathway Cellular senescence, summed fold-changes (SW480 cancer cells; CYT fraction): -0.24
- KEGG pathway Ferroptosis, summed fold-changes (SW480 cancer cells; CYT fraction): 5.49
- KEGG pathway Proteasome, summed fold-changes (SW480 cancer cells; CYT fraction): 4.95
- KEGG pathway Protein processing in endoplasmic reticulum, summed fold-changes (SW480 cancer cells; CYT fraction): 25.89
- KEGG pathway RNA degradation, summed fold-changes (SW480 cancer cells; CYT fraction): -8.81
- KEGG pathway Ribosome, summed fold-changes (SW480 cancer cells; CYT fraction): -52.73
- GO BP Cellular response to heat, summed fold-changes (SW480 cancer cells; NE fraction): 8.73
- GO BP Cellular response to oxidative stress, summed fold-changes (SW480 cancer cells; NE fraction): -0.12
- GO BP DNA duplex unwinding, summed fold-changes (SW480 cancer cells; NE fraction): -0.60
- GO BP DNA replication, summed fold-changes (SW480 cancer cells; NE fraction): -7.21
- GO BP Double-strand break repair, summed fold-changes (SW480 cancer cells; NE fraction): -0.87
- GO BP Macroautophagy, summed fold-changes (SW480 cancer cells; NE fraction): 4.83
- GO BP Negative regulation of apoptotic process, summed fold-changes (SW480 cancer cells; NE fraction): 2.62
- GO BP Negative regulation of translation, summed fold-changes (SW480 cancer cells; NE fraction): 1.88
- GO BP Proteasome-mediated ubiquitin-dependent protein catabolic process, summed fold-changes (SW480 cancer cells; NE fraction): 45.28
- GO BP Protein K48-linked ubiquitination, summed fold-changes (SW480 cancer cells; NE fraction): -1.15
- GO BP Protein folding, summed fold-changes (SW480 cancer cells; NE fraction): 2.10
- GO BP Protein transport, summed fold-changes (SW480 cancer cells; NE fraction): 1.57
- GO BP Regulation of mRNA stability, summed fold-changes (SW480 cancer cells; NE fraction): -0.24
- GO BP Response to oxidative stress, summed fold-changes (SW480 cancer cells; NE fraction): -0.72
- GO BP Ribosomal small subunit biogenesis, summed fold-changes (SW480 cancer cells; NE fraction): -1.30
- GO BP Stress granule assembly, summed fold-changes (SW480 cancer cells; NE fraction): 3.01
- GO BP Translation, summed fold-changes (SW480 cancer cells; NE fraction): -4.88
- GO BP mRNA processing, summed fold-changes (SW480 cancer cells; NE fraction): 1.71
- GO BP rRNA processing, summed fold-changes (SW480 cancer cells; NE fraction): -2.04
- GO CC Azurophil granule lumen, summed fold-changes (SW480 cancer cells; NE fraction): -1.14
- GO CC Cell surface, summed fold-changes (SW480 cancer cells; NE fraction): 0.76
- GO CC Centrosome, summed fold-changes (SW480 cancer cells; NE fraction): 0.70
- GO CC Chromosome, telomeric region, summed fold-changes (SW480 cancer cells; NE fraction): -12.89
- GO CC Cytoplasmic stress granule, summed fold-changes (SW480 cancer cells; NE fraction): 4.82
- GO CC Cytosol, summed fold-changes (SW480 cancer cells; NE fraction): 8.58
- GO CC Endoplasmic reticulum, summed fold-changes (SW480 cancer cells; NE fraction): 8.32
- GO CC Extracellular exosome, summed fold-changes (SW480 cancer cells; NE fraction): 5.34
- GO CC Ficolin-1-rich granule lumen, summed fold-changes (SW480 cancer cells; NE fraction): 23.99
- GO CC Focal adhesion, summed fold-changes (SW480 cancer cells; NE fraction): 9.01
- GO CC Intracellular membrane-bounded organelle, summed fold-changes (SW480 cancer cells; NE fraction): 8.65
- GO CC Membrane, summed fold-changes (SW480 cancer cells; NE fraction): -2.15
- GO CC Mitochondrion, summed fold-changes (SW480 cancer cells; NE fraction): -7.86
- GO CC Nucleoplasm, summed fold-changes (SW480 cancer cells; NE fraction): 29.04
- GO CC Nucleus, summed fold-changes (SW480 cancer cells; NE fraction): 29.16
- GO CC Perinuclear region of cytoplasm, summed fold-changes (SW480 cancer cells; NE fraction): 8.90
- GO CC Proteasome complex, summed fold-changes (SW480 cancer cells; NE fraction): 37.70
- GO CC Protein-containing complex, summed fold-changes (SW480 cancer cells; NE fraction): -3.65
- GO CC Ribonucleoprotein complex, summed fold-changes (SW480 cancer cells; NE fraction): 3.30
- GO CC Spliceosomal complex, summed fold-changes (SW480 cancer cells; NE fraction): -3.40
- KEGG pathway Apoptosis, summed fold-changes (SW480 cancer cells; NE fraction): -0.73
- KEGG pathway Cellular senescence, summed fold-changes (SW480 cancer cells; NE fraction): -3.09
- KEGG pathway Ferroptosis, summed fold-changes (SW480 cancer cells; NE fraction): 1.80
- KEGG pathway Proteasome, summed fold-changes (SW480 cancer cells; NE fraction): 35.64
- KEGG pathway Protein processing in endoplasmic reticulum, summed fold-changes (SW480 cancer cells; NE fraction): 19.56
- KEGG pathway RNA degradation, summed fold-changes (SW480 cancer cells; NE fraction): -5.97
- KEGG pathway Ribosome, summed fold-changes (SW480 cancer cells; NE fraction): -4.75
- N° proteins down-regulated, CYT (SW480 cancer cells; FDR = 0.05, S0 = 0.1): 429
- N° proteins upregulated, CYT (SW480 cancer cells; FDR = 0.05, S0 = 0.1): 202
- N° proteins down-regulated, NE (SW480 cancer cells; [1]): 170
- N° proteins upregulated, NE (SW480 cancer cells; [1]): 167
